# Results published in ChEMBL document CHEMBL5725356, “Anti-fibrotic pyridinones” (2017).
# Assay: ET-1 Assay: Fibroblasts (primary human lung and dermal, HFL-1, 3T3 etc) are seeded in 96-well plates at ~15000 cells/well and serum starved for 0-48 hours. After media exchange, compounds serially diluted in DMSO are added to the cells. After a brief incubation of ~30 min, stimulants (TGFb, serum, LPA etc) are added followed by further incubation for 16-48 hours. Media is then harvested and stored frozen in plate format for later endothelin-1 (ET-1) determination by ELISA. Toxicity measurements are made using the ATPlite kit (Perkin-Elmer). ET-1 is quantified using an ELISA kit (R&D Systems). The amount of ET-1 produced in the assay wells are back-calculated using the ELISA standard. The ability of a compound to inhibit ET-1 production is typically analyzed by fitting dose-response curves to a 4-parameter logistic function to obtain an EC50 value.
# Conditions: HFL1
row,Compound,EC50
1,O=c1cc(NCc2ccccn2)ccn1-c1ccc(OC(F)(F)F)cc1,< 50 µM
2,Cc1n[nH]c(C)c1-c1ccc(=O)n(-c2ccncc2)c1,> 200 µM
3,Cc1cc(=O)n(-c2ccc(Cl)cc2)cc1-c1cn[nH]c1,> 200 µM
4,Cc1cc(=O)n(-c2ccc(OC(F)(F)F)cc2)cc1-c1ccc2c(c1)OCC(=O)N2,in the range around 125 µM
5,CCOc1ccc(-n2cc(-c3cnn(C)c3)c(Oc3ccccc3)cc2=O)c(C)c1,< 50 µM
6,Cn1cc(-c2cn(-c3ccc(OC(F)(F)F)cc3)c(=O)cc2NCc2ccc(Cl)cc2Cl)cn1,< 50 µM
7,Cc1cc(=O)n(-c2ccc(Cl)cc2)cc1-c1ccc2scnc2c1,in the range around 125 µM
8,O=c1ccc(-c2cn[nH]c2)cn1-c1ccc(F)cc1,in the range around 125 µM
9,Cc1cc(=O)n(-c2ccc(OC(F)(F)F)cc2)cc1-c1ccc2c(c1)OCC(=O)N2C,< 50 µM
10,Cn1cc(-c2ccc(=O)n(-c3ccccc3)n2)cn1,> 200 µM
11,CCOc1ccc(CNc2cc(=O)n(-c3ccc(OC(F)(F)F)cc3)cc2-c2cnn(C)c2)c(F)c1,< 50 µM
12,Cc1cc(=O)n(-c2ccc(OC(F)(F)F)cc2)cc1C(F)(F)F,> 200 µM
13,Cc1cc(=O)n(-c2ccc(OC(F)(F)F)cc2)cc1-c1cccc2c1OCC(=O)N2,> 200 µM
14,Cc1cc(=O)n(-c2ccc(Cl)cc2)cc1-c1ccc2ocnc2c1,> 200 µM
15,Cc1n[nH]c(C)c1-c1ccc(=O)n(-c2ccc(OC(C)C)cc2)c1,in the range around 125 µM
16,CCOc1ccc(-n2cc(-c3ccc4ocnc4c3)c(C)cc2=O)c(C)c1,in the range around 125 µM
17,O=c1ccc(-c2cnn(Cc3ccccc3)c2)cn1-c1ccccc1,in the range around 125 µM
18,Cn1cc(-c2cn(-c3ccc(Cl)cc3)c(=O)cc2Oc2ccccc2)cn1,< 50 µM
19,Cc1cc(=O)n(-c2ccccc2)cc1C,> 200 µM
20,Cc1cc(=O)n(-c2ccc(Cl)cc2)cc1-c1ccnnc1,> 200 µM
21,O=c1ccc(-c2cn[nH]c2)cn1-c1cccc(C(F)(F)F)c1,> 200 µM
22,CCOc1ccc(-n2cc(-c3cnn(C)c3)c(OCCOC)cc2=O)c(C)c1,< 50 µM
23,Cn1cc(C2=CN(c3ccc(OC(F)(F)F)cc3)CC=C2Oc2ccc(C(N)=O)cc2)cn1,< 50 µM
24,Cn1cc(-c2cn(-c3ccc(OC(F)(F)F)cc3)c(=O)cc2Oc2ccc(Cl)cc2)cn1,> 200 µM
25,CCOc1ccc(-n2cc(-c3cnn(C)c3)c(NCc3ccccc3)cc2=O)c(C)c1,< 50 µM
26,Cn1cc(-c2cn(-c3ccc(Cl)cc3)c(=O)c3nccnc23)cn1,> 200 µM

row,Compound,EC50
1,Cc1cc(=O)n(-c2ccc(OC(F)(F)F)cc2)cc1-c1cccc2[nH]c(=O)oc12,> 200 µM
2,O=c1cc(NCc2ncccn2)ccn1-c1ccc(OC(F)(F)F)cc1,> 200 µM
3,CC(=O)Nc1cccc(-n2cc(-c3ccc(F)cc3)c(Oc3ccccc3)cc2=O)c1,< 50 µM
4,O=c1c2c(ccn2Cc2ccccc2)c(-c2ccc(F)cc2)cn1-c1ccc(OC(F)(F)F)cc1,> 200 µM
5,Cn1cc(-c2cn(-c3ccc(OC(F)(F)F)cc3)c(=O)cc2NCc2ncccn2)cn1,> 200 µM
6,Cn1cc(-c2cn(-c3ccc(F)cc3)c(=O)cc2Oc2ccccc2)cn1,< 50 µM
7,CCOc1ccc(CNc2cc(=O)n(-c3ccc(OC(F)(F)F)cc3)cc2-c2cnn(C)c2)cc1,< 50 µM
8,Cc1n[nH]c(C)c1-c1ccc(=O)n(-c2cccc(C(F)(F)F)c2)c1,in the range around 125 µM
9,CCOc1ccc(-n2cc(-c3ccc(F)cc3)c(Cl)cc2=O)c(C)c1,> 200 µM
10,N#Cc1cc(=O)n(-c2ccc(OC(F)(F)F)cc2)cc1-c1ccc(F)cc1,> 200 µM
11,Cc1cc(=O)n(-c2ccc(OC(F)(F)F)cc2)cc1-c1ccc2[nH]c(=O)oc2c1,> 200 µM
12,COc1ccc(-n2cc(-c3cn[nH]c3)ccc2=O)cc1,> 200 µM
13,COc1cccc(-n2cc(-c3cn[nH]c3)ccc2=O)c1,> 200 µM
14,Cn1cc(-c2cn(-c3ccc(C#N)cc3)c(=O)c3cccnc23)cn1,in the range around 125 µM
15,Cc1cc(=O)n(-c2ccc(OC(F)(F)F)cc2C)cc1-c1cnn(C)c1,> 200 µM
16,Cc1n[nH]c(C)c1-c1ccc(=O)n(-c2cccc(F)c2)c1,> 200 µM
17,Cn1cc(-c2cn(-c3ccc(OC(F)(F)F)cc3)c(=O)cc2NCc2cnccn2)cn1,in the range around 125 µM
18,CCOc1ccc(-n2cc(-c3cn[nH]c3)ccc2=O)c(C)c1,< 50 µM
19,Cc1cc(=O)n(-c2ccc(OC(F)(F)F)cc2)cc1-c1cccc2c1NC(=O)CO2,> 200 µM
20,Cn1cc(-c2cn(-c3ccc(OC(F)(F)F)cc3)c(=O)cc2Oc2ccccc2Cl)cn1,< 50 µM
21,COCCOc1ccc(-n2cc(-c3cnn(C)c3)c(Oc3ccccc3)cc2=O)cc1,< 50 µM
22,Cn1cc(-c2cn(-c3ccc(OC(F)(F)F)cc3)c(=O)cc2NCc2ccc(F)cc2F)cn1,< 50 µM
23,O=c1ccc(-c2ccc(F)cc2)nn1-c1ccc(OC(F)(F)F)cc1,> 200 µM
24,Cn1cc(-c2ccc(=O)n(-c3ccc(OC(F)(F)F)cc3)n2)cn1,> 200 µM
25,Cc1cc(=O)n(-c2ccc(OC(F)(F)F)cc2)cc1-c1cccc2c1N(C)C(=O)CO2,> 200 µM
26,CCOC(=O)Nc1cccc(-n2cc(-c3ccc(F)cc3)c(C)cc2=O)c1,< 50 µM

row,Compound,EC50
1,Cc1ccc(F)c(-c2ccccc2)c1,> 200 µM
2,CCn1c(=O)oc2cc(-c3cn(-c4ccc(OC(F)(F)F)cc4)c(=O)cc3C)ccc21,< 50 µM
3,Cn1cc(-c2cn(-c3ccc(OC(F)(F)F)cc3)c(=O)c3c2ccn3C)cn1,< 50 µM
4,Cc1n[nH]c(C)c1-c1ccc(=O)n(-c2ccc(OC(F)(F)F)cc2)c1,in the range around 125 µM
5,Cc1cc(=O)n(-c2ccc(OC(F)(F)F)cc2)cc1-c1ccc2oc(=O)[nH]c2c1,< 50 µM
6,Cn1cc(-c2cn(-c3ccc(OC(F)(F)F)cc3)c(=O)cc2NCc2ccc(C#N)cc2)cn1,> 200 µM
7,CN1C(=O)COc2c(-c3cnn(C)c3)cn(-c3ccc(OC(F)(F)F)cc3)c(=O)c21,> 200 µM
8,Cn1cc(-c2c[nH]c(=O)cc2NCc2ccccn2)cn1,in the range around 125 µM
9,Cn1cc(-c2cn(-c3ccc(C#N)cc3)c(=O)c3nccnc23)cn1,> 200 µM
10,Cn1cc(-c2cn(-c3ccc(O)cc3)c(=O)cc2Oc2ccccc2)cn1,> 200 µM
11,CCn1c(=O)oc2c(-c3cn(-c4ccc(OC(F)(F)F)cc4)c(=O)cc3C)cccc21,> 200 µM
12,Cn1cc(-c2cn(-c3ccc(OC(F)(F)F)cc3)c(=O)cc2Oc2ccccc2F)cn1,> 200 µM
13,CC(C)n1cc(-c2ccc(=O)n(-c3ccccc3)c2)cn1,> 200 µM
14,COCCOc1ccc(Oc2cc(=O)n(-c3ccc(OC(F)(F)F)cc3)cc2-c2cnn(C)c2)cc1,in the range around 125 µM
15,Cc1ccc(=O)n(-c2ccc(OC(F)(F)F)cc2)n1,< 50 µM
16,Cc1cc(=O)n(-c2ccc(OC(F)(F)F)cc2)cc1-c1cccc2c1OC(F)(F)O2,< 50 µM
17,Cc1n[nH]c(C)c1-c1ccc(=O)n(-c2ccc(F)cc2)c1,> 200 µM
18,CCn1c(=O)oc2ccc(-c3cn(-c4ccc(OC(F)(F)F)cc4)c(=O)cc3C)cc21,> 200 µM
19,Cn1cc(-c2cn(-c3ccc(OC(F)(F)F)cc3)c(=O)cc2NCc2ccc(F)cc2)cn1,< 50 µM
20,Cn1cc(-c2cnc(=O)n(-c3ccc(OC(F)(F)F)cc3)c2)cn1,> 200 µM
21,O=c1ccc(-c2cn[nH]c2)cn1-c1cccc(F)c1,> 200 µM
22,O=c1ccc(-c2cn[nH]c2)cn1-c1ccc(Cl)cc1,> 200 µM
23,Cn1cc(-c2c[nH]c(=O)cc2NCc2ncccn2)cn1,< 50 µM
24,COc1cccc(-n2cc(-c3c(C)n[nH]c3C)ccc2=O)c1,in the range around 125 µM
25,Cc1cc(=O)n(-c2ccc(OC(F)(F)F)cc2)cc1C,> 200 µM
26,Cn1cc(-c2cn(-c3ccc(OC(F)(F)F)cc3)c(=O)cc2NCc2cncnc2)cn1,< 50 µM

row,Compound,EC50
1,Cc1cc(=O)n(-c2ccc(NC(N)=O)cc2)cc1-c1ccc(F)cc1,in the range around 125 µM
2,Cc1cc(=O)n(-c2cccc(NC(=O)N(C)C)c2)cc1-c1ccc(F)cc1,< 50 µM
3,O=C1NC=CCN1c1ccccc1,> 200 µM
4,Cn1cc(-c2cn(-c3ccc(OC(F)(F)F)cc3)c(=O)cc2Oc2ccc(F)cc2)cn1,< 50 µM
5,O=c1ccc(-c2cn[nH]c2)cn1-c1ccc(OC(F)(F)F)cc1,< 50 µM
6,Cn1cc(-c2cn(-c3ccc(OC(F)(F)F)cc3)c(=O)cc2Oc2cccc(Cl)c2)cn1,< 50 µM
7,O=c1c2nccnc2c(-c2cn[nH]c2)cn1-c1ccc(OC(F)(F)F)cc1,< 50 µM
8,Cn1cc(-c2cn(-c3ccc(OC(F)(F)F)cc3)c(=O)cc2Oc2cccc(F)c2)cn1,< 50 µM
9,Cn1cc(-c2cn(-c3ccc(OC(F)(F)F)cc3)c(=O)cc2NCc2ccc(Cl)cc2)cn1,in the range around 125 µM
10,Cn1cc(-c2cn(-c3cccc(NC(N)=O)c3)c(=O)cc2Oc2ccccc2)cn1,< 50 µM
11,CNC(=O)Nc1cccc(-n2cc(-c3ccc(F)cc3)c(C)cc2=O)c1,in the range around 125 µM
12,CCOc1ccc(-n2cc(-c3ccc4scnc4c3)c(C)cc2=O)c(C)c1,> 200 µM
13,Cn1cc(-c2cn(-c3ccc(OC(F)(F)F)cc3)c(=O)c3c2OCC(=O)N3)cn1,> 200 µM
14,Cn1cc(-c2cn(-c3ccc(OC(F)(F)F)cc3)c(=O)cc2C#N)cn1,< 50 µM
15,Cc1n[nH]c(C)c1-c1ccc(=O)n(-c2ccc(Cl)cc2)c1,> 200 µM
16,CCOc1ccc(-n2cc(-c3ccc(F)cc3)ccc2=O)c(C)c1,> 200 µM
17,O=c1c2nccnc2c(-c2cn[nH]c2)cn1-c1ccc(Cl)cc1,> 200 µM
18,Cc1ccc(=O)n(-c2ccccc2)n1,> 200 µM
19,CCOc1ccc(-n2cc(-c3c(C)n[nH]c3C)ccc2=O)c(C)c1,in the range around 125 µM
20,CC(C)Oc1ccc(-n2cc(-c3cn[nH]c3)ccc2=O)cc1,in the range around 125 µM
21,Cn1cc(-c2cn(-c3ccc(OC(F)(F)F)cc3)c(=O)cc2NCc2ccc(C#N)cc2F)cn1,< 50 µM
22,Cc1ccccc1-n1cc(-c2cnn(C)c2)ccc1=O,> 200 µM
23,Cc1c(-c2ccc(=O)n(-c3ccc(OC(F)(F)F)cc3)c2)cnn1C,< 50 µM
